{
  "source": "patent US10385038B2",
  "about": "“Pyridine substituted 2-aminopyridine protein kinase inhibitor crystal” (Chia Tai Tianqing Pharmaceutical Group Co., Ltd., priority 2015, dated 2019)",
  "key": {"[1]": {"assay": "Hygroscopicity test (Chinese Pharmacopoeia 2005, Appendix XIX J)", "type": "physicochemical"}, "[2]": {"assay": "Pharmacokinetic test, intragastric administration to Beagle dogs, plasma LC-MS/MS", "type": "in vivo", "conditions": "for bioavailability / Cmax / AUC(0-t) / AUC(0-inf) / Tmax: both sexes, dog, plasma; for bioavailability: beagle, oral, crystal of citrate salt versus compound of Formula I; for Cmax / AUC(0-t) / AUC(0-inf) / Tmax: po; for Cmax / AUC(0-t) / AUC(0-inf) / Tmax / t1/2z: suspension in 0.5% CMC-Na, citrate crystal 5.52 mg/kg, compound of Formula I 4 mg/kg (equimolar as base); for AUC(0-t): 0-36 h, trapezoidal; for AUC(0-inf): extrapolated Ct/λ; for Tmax: mean ± spread", "source_text": "In this study, LC-MS/MS was used to determine the plasma concentrations of drugs after the compound of Formula I and crystals of citrate salt thereof were intragastrically administered to Beagle dogs, and the effects of the crystals of citrate salt of the compound of Forumla I on the absorption behavior were observed.\nThe instrumentation system included the LC-10ADvp (Shimadzu, Japan) LC system and the TSQ Quantum Access triple quadrupole tandem mass spectrometer equipped with an electrospray ionization (ESI) source and Xcalibur 2.0.7 data processing system (Thermo Scientific, USA); the operating software was DAS2.1.1; other instruments were One hundred thousandth electronic balance (Mettler Toledo); Centrifugal rotary concentrator (LABCONCO, USA); High-speed refrigerated centrifuge (Model 5430-R, Eppendorf); Refrigerator (Model BCD-281E, Electrolux); Low temperature refrigerator (Model FORMA 700 SERIES, Thermo […]), etc.\nColumn: Thermo C18 LC column (size: 150 L×2.1 mm, 5 μm); column temperature: 40° C.; Mobile phase A: aqueous phase (containing 5 mM ammonium acetate and 0.1% formic acid); mobile phase B: methanol; gradient elution: 0.01 min, 20%; 0.5 min, 20%; 1.5 min, 80%; 4.5 min, 80%, 5 min, 20%, 6 min, stop (phase B). The flow rate was 0.3 mL/min. Benazeprilat was used as the internal standard for measurement.\nThe measurement was carried out by LC-MS/MS. The ion source was an ESI source and detection was performed in the positive ionization mode; the spray voltage was 3.8 kV; the heated capillary temperature was 350° C.; the pressure of the sheath gas (N2) was 35 Arb; the pressure of the auxiliary gas (N2) was 15 Arb; and voltages for collision induced dissociation (CID) were 25 eV and 25 eV (internal standard), respectively. The scanning mode was selective reaction monitoring (SRM), and the ion reactions for quantitative analysis were m/z 506.3-315.2 (the compound of Formula I) and m/z 397-351 (internal standard), respectively.\nSix adult healthy beagle dogs, half male and half female, each weighing 9-11 kg, were randomly divided into two groups, and cross-administrated with the compound of Formula I and a crystal of citrate salt thereof.\nAfter fasted for 12 h, the dogs were intragastrically administered with the crystal of citrate salt of the compound of Formula I and with the compound of Formula I (both were formulated with 0.5% CMC-Na as a suspension) at 5.52 mg/kg and 4 mg/kg (equimolar amounts based on the base form), respectively. A blank blood sample was taken before administration; and venous blood samples, about 1.0 ml each, were taken 0.5, 1, 2, 3, 4, 6, 8, 12, 14, 24, 36 hours after administration, placed in test tubes containing heparin, and centrifuged. The plasma fractions were isolated and stored at −80° C. After the washout period (7 days), the two groups of animals were each cross-administrated with the corresponding second drug, and the concentration of compound of Formula I in plasma samples was measured. The plasma concentration-time data for each test animal were input into a computer and the relevant pharmacokinetic parameters were calculated using the pharmacokinetic professional software DAS2.1.1, wherein Cmax and Tmax were measured values. AUC(0-t) and AUC(0-∞) are the area under the plasma concentration-time curve for the period of measurement and the total area under the plasma concentration-time curve, respectively. The AUC(0-t) was estimated by the trapezoidal method from the measured plasma concentrations, and the AUC(0-∞) was calculated from the AUC(0-t) plus the remaining area in the range t→∞, which can be calculated by the following equation: AUC(t-∞)=Ct/λ\nIn the above equation, Ct is the last plasma concentration measured, and λ is the elimination rate constant in the terminal portion of the plasma concentration."}, "[3]": {"assay": "Stability test (Chinese Pharmacopoeia 2010, Appendix XIX C), total impurities by HPLC", "type": "physicochemical", "conditions": "for Total impurities: citrate salt", "description": "Stability was examined for 10 days under the conditions of 40° C., 60° C., 75% relative humidity (25° C.), 92.5% relative humidity (25° C.), or light illumination (5000 lx±500 lx), respectively. Samples were taken on day 0 and day 10, and the total impurities thereof were assayed by HPLC.\nColumn: Waters XBridge C18 (5 μm, 4.6×150 mm)\nMobile phase A: 0.01 M aqueous ammonium formate, to which 0.1% formic acid was added, and triethylamine was also added to adjust the pH to 7.4\nMobile phase B: acetonitrile\nLinear gradient elution, with the following procedure: […]\nDetection wavelength: diode array detector (280 nm)\nColumn temperature: 40° C.\nSolvent: acetonitrile-water (1:1)\nPreparation of the test solution: the solution was taken and accurately weighed, dissolved in a solvent and diluted to a solution at 1 mg per 1 mL, as the test solution."}, "[4]": {"conditions": "10 days at 40° C., 60° C., 75% RH, 92.5% RH or light"}},
  "note": "Read-outs that look alike come from different tables or passages of the source.",
  "data": [
    {"smiles": "COc1cc(N2CCNC[C@@H]2C)ncc1-c1cnc(N)c(O[C@H](C)c2c(Cl)ccc(F)c2Cl)c1.O=C(O)CC(O)(CC(=O)O)C(=O)O", "note": "[Example 2, 5-((R)-1-(2,6-dichloro-3-fluorophenyl)ethoxy)-4′-methoxy-6′-((S)-2-methylpiperazin-1-yl)-3,3′-bipyridin-6-amine citrate salt]", "values": [
      {"measurement": "Hygroscopic weight gain compared to the compound of Formula I and the other salts thereof (in words)", "setting": "[1]", "value": "obviously lower"},
      {"measurement": "Degree and rate of absorption compared to the compound of Formula I (in words)", "setting": "[2]", "value": "better degree and rate of absorption"},
      {"measurement": "bioavailability", "setting": "[2]; from AUC(0-t), read-out: Relative bioavailability F1", "value": "114 ± 68.3", "unit": "%"},
      {"measurement": "bioavailability", "setting": "[2]; from AUC(0-∞), read-out: Relative bioavailability F2", "value": "113 ± 68.3", "unit": "%"},
      {"measurement": "Cmax", "setting": "[2]", "value": "63 ± 29.2", "unit": "ng/mL"},
      {"measurement": "AUC(0-t)", "setting": "[2]", "value": "570 ± 343", "unit": "ng·h/mL"},
      {"measurement": "AUC(0-inf)", "setting": "[2]", "value": "586 ± 353", "unit": "ng·h/mL"},
      {"measurement": "Tmax", "setting": "[2]", "value": "2.33 ± 1.03", "unit": "h"},
      {"measurement": "t1/2z", "setting": "[2]", "value": "5.94 ± 1.59", "unit": "h"},
      {"measurement": "Total impurities", "setting": "[3]; 40° C., 10 days, listed as crystal form A of citrate salt of the compound of Formula I", "value": 0.77, "unit": "%"},
      {"measurement": "Total impurities", "setting": "[3]; 60° C., 10 days, listed as crystal form A of citrate salt of the compound of Formula I", "value": 0.89, "unit": "%"},
      {"measurement": "Stability (in words)", "setting": "[3]; [4]", "value": "good stability"},
      {"measurement": "Stability compared between crystal forms (in words)", "setting": "[3]; [4]", "value": "better than that of crystal form B"},
      {"measurement": "Total impurities", "setting": "[3]; Initial state, 0 day, listed as crystal form A of citrate salt of the compound of Formula I", "value": 0.76, "unit": "%"},
      {"measurement": "Total impurities", "setting": "[3]; Light illumination (5000 lx±500 lx), 10 days, listed as crystal form A of citrate salt of the compound of Formula I", "value": 0.78, "unit": "%"},
      {"measurement": "Total impurities", "setting": "[3]; Relative humidity 75%, 25° C., 10 days, listed as crystal form A of citrate salt of the compound of Formula I", "value": 0.79, "unit": "%"},
      {"measurement": "Total impurities", "setting": "[3]; Relative humidity 92.5%, 25° C., 10 days, listed as crystal form A of citrate salt of the compound of Formula I", "value": 0.77, "unit": "%"}
    ]},
    {"smiles": "COc1cc(N2CCNC[C@@H]2C)ncc1-c1cnc(N)c(O[C@H](C)c2c(Cl)ccc(F)c2Cl)c1", "note": "[Example 1, 5-((R)-1-(2,6-dichloro-3-fluorophenyl)ethoxy)-4′-methoxy-6′-((S)-2-methylpiperazin-1-yl)-3,3′-bipyridin-6-amine]", "values": [
      {"measurement": "Cmax", "setting": "[2]", "value": "50 ± 20.8", "unit": "ng/mL"},
      {"measurement": "AUC(0-t)", "setting": "[2]", "value": "502 ± 176", "unit": "ng·h/mL"},
      {"measurement": "AUC(0-inf)", "setting": "[2]", "value": "517 ± 181", "unit": "ng·h/mL"},
      {"measurement": "Tmax", "setting": "[2]", "value": "3.17 ± 1.6", "unit": "h"},
      {"measurement": "t1/2z", "setting": "[2]", "value": "6.71 ± 2.55", "unit": "h"}
    ]},
    {"smiles": "COc1cc(N2CCNC[C@@H]2C)ncc1-c1cnc(N)c(O[C@H](C)c2c(Cl)ccc(F)c2Cl)c1.O=C(O)CC(O)(CC(=O)O)C(=O)O", "note": "[Example 12, 5-((R)-1-(2,6-dichloro-3-fluorophenyl)ethoxy)-4′-methoxy-6′-((S)-2-methylpiperazin-1-yl)-3,3′-bipyridin-6-amine citrate salt]", "values": [
      {"measurement": "Hygroscopic weight gain compared to the compound of Formula I and the other salts thereof (in words)", "setting": "[1]", "value": "obviously lower"}
    ]},
    {"smiles": "COc1cc(N2CCNC[C@@H]2C)ncc1-c1cnc(N)c(O[C@H](C)c2c(Cl)ccc(F)c2Cl)c1.O=C(O)CC(O)(CC(=O)O)C(=O)O", "note": "[Example 8, 5-((R)-1-(2,6-dichloro-3-fluorophenyl)ethoxy)-4′-methoxy-6′-((S)-2-methylpiperazin-1-yl)-3,3′-bipyridin-6-amine citrate salt]", "values": [
      {"measurement": "Hygroscopic weight gain compared to the compound of Formula I and the other salts thereof (in words)", "setting": "[1]", "value": "obviously lower"},
      {"measurement": "Total impurities", "setting": "[3]; 40° C., 10 days, listed as crystal form B of citrate salt of the compound of Formula I", "value": 0.96, "unit": "%"},
      {"measurement": "Total impurities", "setting": "[3]; 60° C., 10 days, listed as crystal form B of citrate salt of the compound of Formula I", "value": 1.19, "unit": "%"},
      {"measurement": "Total impurities", "setting": "[3]; Initial state, 0 day, listed as crystal form B of citrate salt of the compound of Formula I", "value": 0.89, "unit": "%"},
      {"measurement": "Total impurities", "setting": "[3]; Light illumination (5000 lx±500 lx), 10 days, listed as crystal form B of citrate salt of the compound of Formula I", "value": 0.99, "unit": "%"},
      {"measurement": "Total impurities", "setting": "[3]; Relative humidity 75%, 25° C., 10 days, listed as crystal form B of citrate salt of the compound of Formula I", "value": 0.94, "unit": "%"},
      {"measurement": "Total impurities", "setting": "[3]; Relative humidity 92.5%, 25° C., 10 days, listed as crystal form B of citrate salt of the compound of Formula I", "value": 0.95, "unit": "%"}
    ]}
  ]
}
